Measurements: patent US10336762B2 (priority 2017, dated 2019)
Like-named read-outs stand apart in the source and are kept apart here.

Assays:
[1] = test system: TNFα; experiment: cells; type: cell-based, human; conditions: read-out: EC50 TNF
[2] = target: IRAK4 enzyme (Homo sapiens (Human), UniProt Q9NWZ3); experiment: biochemical; type: biochemical
[3] = Homo sapiens, Monocyte, LPS-stimulated human monocytes, TNFα content
[4] = IRAK4 enzyme, TR-FRET (HTRF), 500 μM ATP
[5] = IRAK4 enzyme, TR-FRET, 500 μM ATP
[6] = LPS-stimulated human monocytes, TNFα content
[7] = Homo sapiens, Monocyte, LPS-stimulated human monocytes, TNFα by TR-FRET

Chain of IRAK4 enzyme (Q9NWZ3 whole entry): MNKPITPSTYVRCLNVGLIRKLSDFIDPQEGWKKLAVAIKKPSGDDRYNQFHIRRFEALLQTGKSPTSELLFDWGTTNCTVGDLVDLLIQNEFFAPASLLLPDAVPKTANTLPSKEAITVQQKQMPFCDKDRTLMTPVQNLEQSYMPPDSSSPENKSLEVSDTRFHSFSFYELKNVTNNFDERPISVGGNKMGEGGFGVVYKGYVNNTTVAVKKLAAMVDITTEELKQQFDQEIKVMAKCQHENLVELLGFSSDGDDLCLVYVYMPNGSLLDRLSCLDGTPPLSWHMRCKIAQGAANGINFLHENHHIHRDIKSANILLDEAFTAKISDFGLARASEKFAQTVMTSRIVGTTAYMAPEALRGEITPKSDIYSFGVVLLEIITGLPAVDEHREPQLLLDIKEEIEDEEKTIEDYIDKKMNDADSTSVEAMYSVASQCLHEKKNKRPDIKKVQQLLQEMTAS

Row | SMILES | EC50 [1, 3] [nM] | IC50 [2, 4] [nM] | IC50 [2, 5] [nM] | also measured
1 | C[C@@H]1CN(c2ncc(Nc3cc(-c4ccc5cc(C#N)cnn45)ncc3C(=O)NC[C@@H](F)C(C)(C)O)cn2)C[C@H](C)O1 [Example 686, 6-(3-cyanopyrrolo[1,2-b]pyridazin-7-yl)-4-((2-((2S,6R)-2,6-dimethyl-morpholino)pyrimidin-5-yl)amino)-N-((R)-2-fluoro-3-hydroxy-3-methylbutyl) nicotinamide] | 20 | < 1 |  | 
2 | CC1(O)CN(C(=O)C23CCC(Nc4cc(-c5ccc6cc(C#N)cnn56)ncc4C(=O)NC[C@@H](F)C(C)(C)O)(CC2)CC3)C1 [Example 159, (R)-6-(3-cyanopyrrolo[1,2-b]pyridazin-7-yl)-N-(2-fluoro-3-hydroxy-3-methylbutyl)-4-((4-(3-hydroxy-3-methylazetidine-1-carbonyl)bicyclo[2.2.2]octan-1-yl)amino)nicotinamide] | 184 |  | 1 | 
3 | N#Cc1cnn2c(-c3cc(NC45CCC(O)(CC4)CC5)c(C(=O)NCC4(F)CC4)cn3)ccc2c1 [Example 709, 6-(3-cyanopyrrolo[1,2-b]pyridazin-7-yl)-N-((1-fluorocyclopropyl)methyl)-4-((4-hydroxy-bicyclo[2.2.2]octan-1-yl)amino)nicotinamide] | 151 | 3 |  | 
4 | CC(=O)N[C@H]1CC[C@H](Nc2cc(-c3ccc4cc(C#N)cnn34)ncc2C(=O)NC[C@@H](F)C(C)(C)O)CC1 [Example 326, 4-(((1r,4R)-4-acetamidocyclohexyl)amino)-6-(3-cyanopyrrolo[1,2-b]pyridazin-7-yl)-N-((R)-2-fluoro-3-hydroxy-3-methylbutyl)nicotinamide] |  |  |  | EC50 ([1]; Homo sapiens, Monocyte): 56 nM; IC50 [2]: < 1 nM
5 | CC(C)(O)[C@H](F)CNC(=O)c1cnc(-c2ccc3cc(C#N)cnn23)cc1NC1CCCC(S(C)(=O)=O)C1 (single isomer, unassigned) [Example 517] |  | < 1 |  | EC50 [1, 6]: 484 nM
6 | CC(C)(O)[C@H](F)CNC(=O)c1cnc(-c2ccc3cc(C#N)cnn23)cc1NC1CC2CCC(C1)N2 (stereo partly drawn) [Example 24, 4-(((1R,3s,5S)-8-azabicyclo[3.2.1]octan-3-yl)amino)-6-(3-cyanopyrrolo[1,2-b]pyridazin-7-yl)-N-((R)-2-fluoro-3-hydroxy-3-methylbutyl)nicotinamide] |  |  | 2 | EC50 [1, 6]: 642 nM
7 | CC(C)(O)[C@H](F)CNC(=O)c1cnc(-c2ccc3cc(C#N)cnn23)cc1Nc1nc(-c2ccccc2)cs1 [Example 363, (R)-6-(3-cyanopyrrolo[1,2-b]pyridazin-7-yl)-N-(2-fluoro-3-hydroxy-3-methylbutyl)-4-((4-phenyl-thiazol-2-yl)amino) nicotinamide] | 328 |  | 5 | 
8 | COC(=O)NC12CCC(Nc3cc(-c4ccc5cc(C#N)cnn45)ncc3C(=O)NC[C@@H](F)C(C)(C)O)(CC1)C2 [Example 500, (R)-methyl (4-((2-(3-cyano-pyrrolo[1,2-b]pyridazin-7-yl)-5-((2-fluoro-3-hydroxy-3-methylbutyl)carbamoyl)pyridin-4-yl)amino)bicyclo[2.2.1]heptan-1-yl)carbamate] | 13 | 1 |  | 
9 | COC1(C)CN(C(=O)C23CCC(Nc4cc(-c5ccc6cc(C#N)cnn56)ncc4C(=O)NC[C@@H](F)C(C)(C)O)(CC2)CC3)C1 [Example 158, (R)-6-(3-cyanopyrrolo[1,2-b]pyridazin 7-yl)-N-(2-fluoro-3-hydroxy-3-methylbutyl)-4-((4-(3-methoxy-3-methylazetidine-1-carbonyl)bicyclo[2.2.2]octan-1-yl)amino)nicotinamide] | 99 |  | 2 | 
10 | CC(C)(O)[C@H](F)CNC(=O)c1cnc(-c2ccc3cc(C#N)cnn23)cc1NC1CC2CCC(C1)O2 (stereo partly drawn) [Example 50, 4-(8-oxabicyclo[3.2.1]octan-3-ylamino)-6-(3-cyanopyrrolo[1,2-b]pyridazin-7-yl)-N-((R)-2-fluoro-3-hydroxy-3-methylbutyl) nicotinamide] | 351 |  | 3 | 
11 | CC(C)(O)[C@H](F)CNC(=O)c1cnc(-c2ccc3cc(C#N)cnn23)cc1N[C@H]1CCC(=O)NC1 [Example 368, 6-(3-cyanopyrrolo[1,2-b]pyridazin-7-yl)-N-((R)-2-fluoro-3-hydroxy-3-methylbutyl)-4-(((S)-6-oxopiperidin-3-yl)amino)nicotinamide] | 2890 |  | 5 | 
12 | CC(C)(O)[C@H](F)CNC(=O)c1cnc(-c2ccc3cc(C#N)cnn23)cc1NC12CCC(C(N)=O)(CC1)CC2 [Example 398, (R)-4-((4-carbamoylbicyclo[2.2.2]octan-1-yl)amino)-6-(3-cyanopyrrolo[1,2-b]pyridazin-7-yl)-N-(2-fluoro-3-hydroxy-3-methyl-butyl)nicotinamide] | 17 | < 1 |  | 
13 | CNC(=O)c1cnc(-c2ccc3cc(C#N)cnn23)cc1N[C@H]1CC[C@H](NC(C)=O)CC1 [Example 276, 4-(((1r,4r)-4-acetamidocyclohexyl)amino)-6-(3-cyano-pyrrolo[1,2-b]pyridazin-7-yl)-N-methylnicotinamide] | 146 |  | 3 | 
14 | CC(C)(O)[C@H](F)CNC(=O)c1cnc(-c2ccc3cc(C#N)cnn23)cc1N[C@H]1C[C@H](CNC(=O)OCC(F)(F)F)C1 [Example 654, 2,2,2-trifluoroethyl (((1R,3r)-3-((2-(3-cyanopyrrolo[1,2-b]pyridazin-7-yl)-5-(((R)-2-fluoro-3-hydroxy-3-methylbutyl)carbamoyl)pyridin-4-yl)amino)cyclo-butyl)methyl)carbamate] | 15 | < 1 |  | 
15 | CC(C)(O)[C@H](F)CNC(=O)c1cnc(-c2ccc3cc(C#N)cnn23)cc1Nc1ccc(C(C)(C)N2CCCC2=O)cc1 [Example 875, (R)-6-(3-cyanopyrrolo[1,2-b]pyridazin-7-yl)-N-(2-fluoro-3-hydroxy-3-methyl-butyl)-4-((4-(2-(2-oxo-pyrrolidin-1-yl)propan-2-yl)phenyl)amino)nicotinamide] |  |  | 2 | EC50 [1, 7]: 64 nM
16 | Cc1ccc(Nc2cc(-c3ccc4cc(C#N)cnn34)ncc2C(=O)NC[C@@H](F)C(C)(C)O)cn1 [Example 184, (R)-6-(3-cyanopyrrolo[1,2-b]pyridazin-7-yl)-N-(2-fluoro-3-hydroxy-3-methylbutyl)-4-((6-methylpyridin-3-yl)amino)nicotinamide] | 48 |  | < 1 | 
17 | COC(=O)N[C@H]1C[C@H](CNc2cc(-c3ccc4cc(C#N)cnn34)ncc2C(=O)NC[C@@H](F)C(C)(C)O)C1 [Example 615, methyl ((1R,3r)-3-(((2-(3-cyanopyrrolo[1,2-b]pyridazin-7-yl)-5-(((R)-2-fluoro-3-hydroxy-3-methylbutyl)carbamoyl)pyridin-4-yl)amino)methyl)cyclobutyl)carbamate] | 46 | < 1 |  | 
18 | CN1CCN(C(=O)CCNC(=O)c2cnc(-c3ccc4cc(C#N)cnn34)cc2NC23CCC(O)(CC2)CC3)CC1 [Example 806, 6-(3-cyanopyrrolo[1,2-b]pyridazin-7-yl)-4-((4-hydroxybicyclo[2.2.2]octan-1-yl)amino)-N-(3-(4-methylpiperazin-1-yl)-3-oxopropyl)nicotinamide] |  |  | 3 | EC50 [1, 7]: 349 nM
19 | CC(C)(O)[C@H](F)CNC(=O)c1cnc(-c2ccc3cc(C#N)cnn23)cc1-n1cc(-c2cnc(N)cn2)cn1 [Example 936, (R)-4-(4-(5-aminopyrazin-2-yl)-1H-pyrazol-1-yl)-6-(3-cyanopyrrolo[1,2-b]pyridazin-7-yl)-N-(2-fluoro-3-hydroxy-3-methylbutyl) nicotinamide] |  |  | 147 | EC50 [1, 7]: > 10000 nM
20 | CC(C)(O)[C@H](F)CNC(=O)c1cnc(-c2ccc3cc(C#N)cnn23)cc1N[C@H]1CC[C@H](NC(=O)OC2COC2)CC1 [Example 280, oxetan-3-yl ((1R,4r)-4-((2-(3-cyanopyrrolo[1,2-b]pyridazin-7-yl)-5-(((R)-2-fluoro-3-hydroxy-3-methylbutyl)carbamoyl)pyridin-4-yl)amino)cyclo-hexyl)carbamate] | 55 |  | 1 | 
21 | COC(=O)N1CCOC[C@@H]1CNc1cc(-c2ccc3cc(C#N)cnn23)ncc1C(=O)NC[C@@H](F)C(C)(C)O [Example 919, (S)-methyl 3-(((2-(3-cyano-pyrrolo[1,2-b]pyridazin-7-yl)-5-(((R)-2-fluoro-3-hydroxy-3-methylbutyl)carbamoyl)pyridin-4-yl)amino)methyl)morpholine-4-carboxylate] |  |  | 37 | EC50 [1, 7]: 707 nM
22 | N#Cc1cnn2c(-c3cc(NC4COC4)c(C(=O)NCC(=O)N4CC(F)(F)C4)cn3)ccc2c1 [Example 626, 6-(3-cyanopyrrolo[1,2-b]pyridazin-7-yl)-N-(2-(3,3-difluoroazetidin-1-yl)-2-oxoethyl)-4-(oxetan-3-ylamino)nicotinamide] | 79 | < 1 |  | 
23 | CC(C)(O)[C@H](F)CNC(=O)c1cnc(-c2ccc3cc(C#N)cnn23)cc1N[C@H]1C[C@@H]2C[C@H]1CN2S(C)(=O)=O [Example 113, 6-(3-cyanopyrrolo[1,2-b]pyridazin-7-yl)-N-((R)-2-fluoro-3-hydroxy-3-methylbutyl)-4-(((1S,4S,5S)-2-(methylsulfonyl)-2-azabicyclo[2.2.1]heptan-5-yl)amino)nicotinamide] | 3670 |  | 22 | 
24 | [2H]C([2H])([2H])OC(=O)NC[C@H]1C[C@H](Nc2cc(-c3ccc4cc(C#N)cnn34)ncc2C(=O)NC[C@@H](F)C(C)(C)O)C1 [Example 867, methyl-d3 (((1R,3r)-3-((2-(3-cyanopyrrolo[1,2-b]pyridazin-7-yl)-5-(((R)-2-fluoro-3-hydroxy-3-methylbutyl)carbamoyl)pyridin-4-yl)amino)cyclo-butyl)methyl)carbamate] |  |  | < 1 | EC50 [1, 7]: 6 nM
25 | CC(C)(O)[C@H](F)CNC(=O)c1cnc(-c2ccc3cc(C#N)cnn23)cc1Nc1cccnc1F [Example 229, (R)-6-(3-cyanopyrrolo[1,2-b]pyridazin-7-yl)-N-(2-fluoro-3-hydroxy-3-methylbutyl)-4-((2-fluoropyridin-3-yl)amino)nicotinamide] | 135 |  | 1 | 
